The text below walks through data of patent US5773239A, “Mannosidase inhibitors, process for their preparation and their use as therapeutic agents” (Mount Sinai Hospital Corporation., priority 1995, dated 1998).

Where only a bound is given, the exact number is not on record here.

For series [1], the target named is T1, rat liver Golgi α-mannosidase II (Rattus norvegicus, UniProt P28494).
T1 construct: The assay for rat liver Golgi α-mannosidase II; from tissue; host or cells: rat liver (Golgi)
T1 sequence (P28494 1-1148): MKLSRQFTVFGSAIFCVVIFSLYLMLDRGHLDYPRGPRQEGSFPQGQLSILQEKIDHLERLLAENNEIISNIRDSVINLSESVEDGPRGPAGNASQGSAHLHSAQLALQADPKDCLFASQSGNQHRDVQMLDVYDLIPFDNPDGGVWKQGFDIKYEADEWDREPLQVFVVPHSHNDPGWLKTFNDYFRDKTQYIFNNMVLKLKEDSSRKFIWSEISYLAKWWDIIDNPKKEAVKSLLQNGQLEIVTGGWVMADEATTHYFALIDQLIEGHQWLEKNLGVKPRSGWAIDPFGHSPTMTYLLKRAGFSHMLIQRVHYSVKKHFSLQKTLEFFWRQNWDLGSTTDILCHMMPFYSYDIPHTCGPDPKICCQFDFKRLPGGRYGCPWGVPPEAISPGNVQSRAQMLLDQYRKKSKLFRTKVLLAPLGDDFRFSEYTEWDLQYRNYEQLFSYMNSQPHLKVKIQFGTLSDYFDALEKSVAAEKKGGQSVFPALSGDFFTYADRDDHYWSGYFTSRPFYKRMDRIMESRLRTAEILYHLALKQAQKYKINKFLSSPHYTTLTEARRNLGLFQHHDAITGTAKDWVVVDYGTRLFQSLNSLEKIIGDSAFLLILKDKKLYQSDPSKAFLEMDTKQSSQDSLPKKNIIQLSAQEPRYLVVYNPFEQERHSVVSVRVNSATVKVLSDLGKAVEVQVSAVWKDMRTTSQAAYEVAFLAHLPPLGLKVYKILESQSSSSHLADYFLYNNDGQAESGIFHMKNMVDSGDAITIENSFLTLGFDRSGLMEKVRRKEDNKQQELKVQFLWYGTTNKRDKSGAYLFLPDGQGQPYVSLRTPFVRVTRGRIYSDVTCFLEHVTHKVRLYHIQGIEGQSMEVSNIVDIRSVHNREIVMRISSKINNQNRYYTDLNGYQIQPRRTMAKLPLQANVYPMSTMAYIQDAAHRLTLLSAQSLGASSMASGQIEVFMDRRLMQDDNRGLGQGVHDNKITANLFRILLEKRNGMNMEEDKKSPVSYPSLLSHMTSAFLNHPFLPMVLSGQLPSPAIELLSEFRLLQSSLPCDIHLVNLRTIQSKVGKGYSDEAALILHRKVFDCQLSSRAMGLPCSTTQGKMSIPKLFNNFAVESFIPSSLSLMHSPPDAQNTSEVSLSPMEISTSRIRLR
The experiment in a line: Rat liver Golgi α-mannosidase II assay. The settings on record: for IC50: para-nitrophenyl α-mannose, pH 5.6, read-out: IC50 ManII; for Ratio: ratio of lyso to ManII IC50 values. Format: biochemical. The protocol: The assay for rat liver Golgi α-mannosidase II contained 5 mM para-nitrophenylα-mannose, 40 mM sodium acetate pH 5.6, plus serially diluted test compouunds and mannosidase enzyme in a total volume of 50 ul, in 96 well plates. Plates were incubated 45 min at 37° C., then the reaction was stopped with 50 μl of 0.5M sodium carbonate. […] The lysosomal mannosidase was done in the same procedure but with 40 mM sodium acetate buffer pH 5.0. The numbers in the table are IC50 values in μM for inhibition of mannosidase activity.

For series [2], the target named is lysosomal mannosidase. The experiment in a line: Lysosomal mannosidase assay (pH 5.0). The settings on record: para-nitrophenyl α-mannose. The class given is biochemical. The procedure: The assay for rat liver Golgi α-mannosidase II contained 5 mM para-nitrophenylα-mannose, 40 mM sodium acetate pH 5.6, plus serially diluted test compouunds and mannosidase enzyme in a total volume of 50 ul, in 96 well plates. Plates were incubated 45 min at 37° C., then the reaction was stopped with 50 μl of 0.5M sodium carbonate. The absorbance of reaction products was read at 405 nm. The lysosomal mannosidase was done in the same procedure but with 40 mM sodium acetate buffer pH 5.0. The numbers in the table are IC50 values in μM for inhibition of mannosidase activity.

For series [3], the system named is MDAY-D2 tumor cells. Briefly: L-PHA toxicity assay (inhibition of oligosaccharide processing in cells). The class given is cell-based, mouse. The settings on record: MDAY-D2 mouse lymphoma cells; read-out: IC50 for protection of cells from toxicity of LPHA lectin. The procedure: MDAY-D2 tumor cells were inoculated into 96 well micro-test plates at 2×10^4 cells/well, and containing serial dilutions of SW or SW analogues in MEM plus 10% FCS. The cells were cultured for 18-20 hr, followed by the addition of L-PHA at 25 μg/ml for an additional 24 hr. Cell proliferation was measured by adding 0.5 μCi/well of ^3 H-thymidine for 3-4 hr, harvesting onto glass fibre disks using a Titertek harvester and the disks were counted in a liquid scintillation counter. The apparent IC50 values for SW and the analogues are the drug concentrations showing 50% protection from L-PHA toxicity; that is 50% ^3 H-thymidine incorporated compared with cells grown in the absence of L-PHA. In experiments using the esterase inhibitor diethyl p-nitrophenyl phosphate, the compound was added to MDAY-D2 cells 4 hr prior to the α-mannosidase inhibitors and was present through-out the experiment.

Series [4] is described as follows: Cellular toxicity / cell growth with compound alone (no L-PHA). Format: cell-based. The note with it: MDAY-D2 mouse lymphoma cells; read-out: Toxicity (cellular toxicity observed with compound alone).
Series [5] relates to MDAY-D2 tumor cells. The note with it: no drug; cited from earlier work.

What is called IC50 is the concentration needed to halve the response being measured. With `CC(O)C1[C@H](O)[C@H](O)CN1CC1CC1` (stereo partly drawn) [GD013], in series [1], the IC50 came to 114 µM and the Ratio is 1.69. In series [2], inhibition was half-maximal at 193 µM (IC50).

Consider `CC(O)C1[C@H](O)[C@H](O)CN1CC1CCCCC1` (stereo partly drawn) [GD014], for which, in series [1], the IC50 turned out to be 140 µM and the Ratio stood at 1.12. The compound further showed an IC50 in series [2] of 157 µM.

`OC[C@@H]1[C@H](O)[C@H](O)CN1Cc1ccccc1` [GD002]: in series [1], the “selectivity Mannosidase II versus lysosomal mannosidase” value is given as “favourable to Mannosidase II”, the IC50 was 19 µM and the Ratio came out at 11.42. Besides, the IC50 in series [2] turned out to be 217 µM.

`CN1C[C@@H](O)[C@@H](O)[C@H]1CO` [GD003, N-methyl-DIL]: the IC50 in series [3] is 312 µM; in series [1], 26.3 µM; in series [2], 13.6 µM. In addition, in series [1], the Ratio stood at 0.517. Besides, the Concentration at which toxicity was seen with compound alone in series [4] was more than 5000 µM.

As for “L-PHA: toxic plant lectin (leukoagglutinin) purchased from Pharmacia”, the “D50 for L-PHA toxicity” value in series [5] is 5 µg/mL.

For `CCN1C[C@@H](O)[C@@H](O)[C@H]1CO` [GD005, N-ethyl-DIL], the IC50 is 312 µM in series [3], 33.9 µM in series [1] and 14.3 µM in series [2]. The Ratio in series [1] came to 0.42. Moreover, in series [4], the Concentration at which toxicity was seen with compound alone is more than 5000 µM.

For the compound `CCCCN1C[C@@H](O)[C@@H](O)[C@H]1CO` [GD004, N-butyl-DIL], the half-inhibitory concentration (IC50) in series [3] is 625 µM; in series [1], 50.9 µM; in series [2], 25.5 µM. For the same compound, the Ratio in series [1] turned out to be 0.50. Besides, the Concentration at which toxicity was seen with compound alone in series [4] is more than 2500 µM.

Turning to `CCCN1C[C@@H](O)[C@@H](O)[C@H]1CO` [GD006, N-propyl-DIL], the IC50 amounted to 156 µM in series [3], 22.1 µM in series [1] and 19.2 µM in series [2]. Moreover, the Ratio in series [1] is 0.87. Moreover, the Concentration at which toxicity was seen with compound alone in series [4] is more than 2500 µM.

As for `OC[C@@H]1[C@H](O)[C@H](O)CN1CC1CC1` [GD008, N-cyclo-propyl-methyl-DIL], the IC50 in series [3] was 40 µM; in series [1], 8.3 µM; in series [2], 4.9 µM. Moreover, the Ratio in series [1] came to 0.59. The Concentration at which toxicity was seen with compound alone in series [4] was more than 2500 µM.
